# Key:
# PRMT5 [1] = target: T1, PRMT5 (Homo sapiens, UniProt O14744); experiment: PRMT5 IC50 assay in the presence of MTA as cofactor; assay type: biochemical; conditions: for IC50: PRMT5, MTA as cofactor
# T1 construct: purchased Viva (custom protein)
# Method in brief: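 For the SAM-containing format, dividing IC50 by 1.5 yields Ki; for the MTA-containing format the divisor is 13.5. A third format without cofactor gives IC50 alone.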
# HAP1 MTAP-deleted = experiment: SDMA in-cell western assay, HAP1 MTAP-deleted cell line; assay type: cell-based; conditions: for IC50: Homo sapiens, HAP1 MTAP-deleted cell line; for MTAP Intact/Deleted Ratio: IC50 ratio HAP1 MTAP-intact / HAP1 MTAP-deleted
# Method in brief: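 These are IC50 values from an in-cell western measuring SDMA. The HAP1 cells used carry no MTAP, in contrast to the isogenic partner line with endogenous MTAP expression.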
# HAP1 MTAP-intact = experiment: SDMA in-cell western assay, HAP1 MTAP-intact cell line; assay type: cell-based; conditions: Homo sapiens
# Method in brief: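 Potency reflects cellular SDMA reduction, detected by in-cell western, in HAP1 cells with or without MTAP (endogenous expression versus null).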
# PRMT5 [2] = target: T1, PRMT5; experiment: PRMT5 IC50 assay with no cofactor; assay type: biochemical
# Method in brief: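 Three cofactor conditions are run: SAM-bound, MTA-bound and cofactor-free enzyme. IC50 is read from each; for the SAM and MTA arms it is divided by 1.5 and 13.5 respectively to give Ki.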
# PRMT5 [3] = target: T1, PRMT5; experiment: PRMT5 IC50 assay in the presence of SAM as cofactor; assay type: biochemical
# Method in brief: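 Each compound is tested on PRMT5 in the presence of SAM, of MTA, and without any cofactor. Ki values are then back-calculated using fixed factors of 1.5 (SAM) and 13.5 (MTA), and the two Ki values are compared as a ratio.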
# [4] = ratio between the Ki in the presence of SAM and the Ki in the presence of MTA
# [5] = ratio between Ki in the presence of SAM and Ki in the presence of MTA
# T1 sequence (O14744 whole entry): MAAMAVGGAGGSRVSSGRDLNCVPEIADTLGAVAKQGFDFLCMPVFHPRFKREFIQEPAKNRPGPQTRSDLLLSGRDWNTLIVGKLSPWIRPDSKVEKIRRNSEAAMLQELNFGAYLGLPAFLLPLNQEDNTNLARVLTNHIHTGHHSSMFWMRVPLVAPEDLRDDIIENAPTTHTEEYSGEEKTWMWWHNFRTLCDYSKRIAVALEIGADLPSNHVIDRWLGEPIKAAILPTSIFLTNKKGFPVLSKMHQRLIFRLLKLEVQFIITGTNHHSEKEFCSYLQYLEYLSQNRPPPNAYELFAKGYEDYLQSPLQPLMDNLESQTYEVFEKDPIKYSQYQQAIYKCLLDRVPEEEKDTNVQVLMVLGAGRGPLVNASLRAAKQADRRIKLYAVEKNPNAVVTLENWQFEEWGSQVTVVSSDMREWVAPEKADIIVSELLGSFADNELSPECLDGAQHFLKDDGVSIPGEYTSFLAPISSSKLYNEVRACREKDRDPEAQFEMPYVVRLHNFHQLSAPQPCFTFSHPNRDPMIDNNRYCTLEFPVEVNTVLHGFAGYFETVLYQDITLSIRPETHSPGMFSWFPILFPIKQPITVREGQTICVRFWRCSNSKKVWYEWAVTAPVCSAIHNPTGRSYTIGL
# T1 sequence (Q9BQA1 whole entry partner): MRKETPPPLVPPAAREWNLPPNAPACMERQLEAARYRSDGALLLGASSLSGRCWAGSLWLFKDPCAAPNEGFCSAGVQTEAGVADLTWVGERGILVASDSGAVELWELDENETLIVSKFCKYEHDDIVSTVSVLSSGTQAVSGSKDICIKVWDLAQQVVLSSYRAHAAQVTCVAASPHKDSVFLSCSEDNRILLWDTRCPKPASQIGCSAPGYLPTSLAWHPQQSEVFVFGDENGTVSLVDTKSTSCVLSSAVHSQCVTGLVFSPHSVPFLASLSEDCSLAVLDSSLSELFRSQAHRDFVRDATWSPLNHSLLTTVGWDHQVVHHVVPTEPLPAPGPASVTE
Structure (SMILES),IC50 (PRMT5 [1]) [nM],SAM/MTA Ratio (PRMT5 [1]; [4]),IC50 (HAP1 MTAP-deleted) [nM],MTAP Intact/Deleted Ratio (HAP1 MTAP-deleted),IC50 (HAP1 MTAP-intact) [µM],IC50 (PRMT5 [2]) [nM],IC50 (PRMT5 [3]) [nM],SAM/MTA Ratio (PRMT5 [1]; [5]),IC50 (PRMT5 [2]; read-out: No Co-factor IC50) [nM]
"Cc1ncoc1COc1ccc2c(c1C)CCN(C[C@@H](O)CNC(=O)c1cc(NC3CCC3)nc(OCCN(C)C)c1)C2 [Compound 500, 2-(cyclobutylamino)-6-[2-(dimethylamino)ethoxy]-N-[(2S)-2-hydroxy-3-{5-methyl-6-[(4-methyl-1,3-oxazol-5-yl)methoxy]-1,2,3,4-tetrahydroisoquinolin-2-yl}propyl]pyridine-4-carboxamide]",50 to 500,A (a Ki ratio greater than or equal to 10 fold between the Ki in the presence of SAM and the Ki in the presence of MTA),< 1000,A* (an IC50 ratio greater than or equal to 10 fold between the IC50 in the HAP1 MTAP-intact cell line and the HAP1 MTAP-deleted cell line),≥ 10,500 to 5000,50 to 500,–,–
"O=C(NC[C@H](O)CN1CCc2c(ccc(OCc3cnco3)c2Cl)C1)c1ccc(OC2CCN(Cc3ccncc3)CC2)cc1 [Compound 301, (S)—N-(3-(5-chloro-6-(oxazol-5-ylmethoxy)-3,4-dihydroisoquinolin-2(1H)-yl)-2-hydroxypropyl)-4-((1-(pyridin-4-ylmethyl)piperidin-4-yl)oxy)benzamide]",50 to 500,–,1000 to 10000,C* (an IC50 ratio of less than 3 fold between the IC50 in the HAP1 MTAP-intact cell line and the HAP1 MTAP-deleted cell line),≥ 10,–,50 to 500,A (a Ki ratio greater than or equal to 10 fold between the Ki in the presence of SAM and the Ki in the presence of MTA),500 to 5000
"Cc1ncoc1COc1ccc2c(c1)CCN(C[C@@H](O)CNC(=O)c1cc(NC3CCC3)nc(NC3CCC3)c1)C2 [Compound 636, (S)-2,6-bis(cyclobutylamino)-N-(2-hydroxy-3-(6-((4-methyloxazol-5-yl)methoxy)-3N-dihydroisoquinolin-2(1H)-yl)propyl)isonicotinamide]",50 to 500,–,< 1000,B* (an IC50 ratio greater than or equal to 3 fold but lower than 10 fold between the IC50 in the HAP1 MTAP-intact cell line and the HAP1 MTAP-deleted cell line),1 to 10,–,50 to 500,A (a Ki ratio greater than or equal to 10 fold between the Ki in the presence of SAM and the Ki in the presence of MTA),500 to 5000
"CCC(=O)N1CCN(c2cc(C(=O)NC[C@H](O)CN3CCc4c(ccc(OCc5cnco5)c4Cl)C3)cc(NC3CCC3)n2)CC1 [Compound 570, (S)—N-(3-(5-chloro-6-(oxazol-5-ylmethoxy)-3N-dihydroisoquinolin-2(1H)-yl)-2-hydroxypropyl)-2-(cyclobutylamino)-6-(4-propionylpiperazin-1-yl)isonicotinamide]",50 to 500,A (a Ki ratio greater than or equal to 10 fold between the Ki in the presence of SAM and the Ki in the presence of MTA),< 1000,A* (an IC50 ratio greater than or equal to 10 fold between the IC50 in the HAP1 MTAP-intact cell line and the HAP1 MTAP-deleted cell line),≥ 10,500 to 5000,50 to 500,–,–
"Cc1ncoc1COc1ccc2c(c1)CCN(C[C@@H](O)CNC(=O)c1cc(NC3CCCC3)ncn1)C2 [Compound 333, 6-(cyclopentylamino)-N-[(2S)-2-hydroxy-3-{6-[(4-methyl-1,3-oxazol-5-yl)methoxy]-1,2,3,4-tetrahydroisoquinolin-2-yl}propyl]pyrimidine-4-carboxamide]",50 to 500,–,< 1000,C* (an IC50 ratio of less than 3 fold between the IC50 in the HAP1 MTAP-intact cell line and the HAP1 MTAP-deleted cell line),< 1,–,50 to 500,A (a Ki ratio greater than or equal to 10 fold between the Ki in the presence of SAM and the Ki in the presence of MTA),≥ 5000
"COc1cnc(NC2CCN(C(C)=O)CC2)cc1C(=O)NC[C@H](O)CN1CCc2cc(OCc3ocnc3C)ccc2C1 [Compound 597, (S)-2-((1-acetylpiperidin-4-yl)amino)-N-(2-hydroxy-3-(6-((4-methyloxazol-5-yl)methoxy)-3,4-dihydroisoquinolin-2(1H)-yl)propyl)-5-methoxyisonicotinamide]",< 50,A (a Ki ratio greater than or equal to 10 fold between the Ki in the presence of SAM and the Ki in the presence of MTA),< 1000,B* (an IC50 ratio greater than or equal to 3 fold but lower than 10 fold between the IC50 in the HAP1 MTAP-intact cell line and the HAP1 MTAP-deleted cell line),1 to 10,50 to 500,50 to 500,–,–
"CCN1CCN(c2cc(C(=O)NC[C@H](O)CN3CCc4c(ccc(OCc5ocnc5C)c4C)C3)cc(NC3CCC3)n2)CC1 [Compound 394, 2-(cyclobutylamino)-6-(4-ethylpiperazin-1-yl)-N-[(2S)-2-hydroxy-3-{5-methyl-6-[(4-methyl-1,3-oxazol-5-yl)methoxy]-1,2,3,4-tetrahydroisoquinolin-2-yl}propyl]pyridine-4-carboxamide]",50 to 500,–,< 1000,A* (an IC50 ratio greater than or equal to 10 fold between the IC50 in the HAP1 MTAP-intact cell line and the HAP1 MTAP-deleted cell line),≥ 10,–,50 to 500,A (a Ki ratio greater than or equal to 10 fold between the Ki in the presence of SAM and the Ki in the presence of MTA),500 to 5000
"Cc1c(OCc2cnco2)ccc2c1CCN(C[C@@H](O)CNC(=O)c1cc(NC3CCC3)ncn1)C2 [Compound 376, 6-(cyclobutylamino)-N-[(2S)-2-hydroxy-3-{5-methyl-6-[(1,3-oxazol-5-yl)methoxy]-1,2,3,4-tetrahydroisoquinolin-2-yl}propyl]pyrimidine-4-carboxamide]",500 to 5000,–,≥ 10000,C* (an IC50 ratio of less than 3 fold between the IC50 in the HAP1 MTAP-intact cell line and the HAP1 MTAP-deleted cell line),≥ 10,–,500 to 5000,A (a Ki ratio greater than or equal to 10 fold between the Ki in the presence of SAM and the Ki in the presence of MTA),≥ 5000
"CC(=O)N1CC(Nc2cc(C(=O)NC[C@H](O)CN3CCc4cc(OCc5ocnc5C)c(F)cc4C3)nc(N3CCCCC3)n2)C1 [Compound 579, 6-[(1-acetylazetidin-3-yl)amino]-N-[(2S)-3-[7-fluoro-6-[(4-methyloxazol-5-yl)methoxy]-3,4-dihydro-1H-isoquinolin-2-yl]-2-hydroxy-propyl]-2-(1-piperidyl)pyrimidine-4-carboxamide]",50 to 500,A (a Ki ratio greater than or equal to 10 fold between the Ki in the presence of SAM and the Ki in the presence of MTA),< 1000,A* (an IC50 ratio greater than or equal to 10 fold between the IC50 in the HAP1 MTAP-intact cell line and the HAP1 MTAP-deleted cell line),1 to 10,50 to 500,50 to 500,–,–
"Cc1c(OCc2cnco2)ccc2c1CCN(C[C@@H](O)CNC(=O)c1ccnc(NC3CCC3C3CCC3)c1)C2 (stereo partly drawn) [Compound 476, 2-([1,1′-bi(cyclobutan)]-2-ylamino)-N—((S)-2-hydroxy-3-(5-methyl-6-(oxazol-5-ylmethoxy)-3,4-dihydroisoquinolin-2(1H)-yl)propyl)isonicotinamide]",50 to 500,A (a Ki ratio greater than or equal to 10 fold between the Ki in the presence of SAM and the Ki in the presence of MTA),≥ 10000,C* (an IC50 ratio of less than 3 fold between the IC50 in the HAP1 MTAP-intact cell line and the HAP1 MTAP-deleted cell line),≥ 10,≥ 5000,500 to 5000,–,–
"Cc1c(OCc2cn[nH]c2)ccc2c1CCN(C[C@@H](O)CNC(=O)c1ccnc(NC3CCC3)c1)C2 [Compound 254, 2-(cyclobutylamino)-N-[(2S)-2-hydroxy-3-[5-methyl-6-(1H-pyrazol-4-ylmethoxy)-3,4-dihydro-1H-isoquinolin-2-yl]propyl]pyridine-4-carboxamide]",50 to 500,–,1000 to 10000,C* (an IC50 ratio of less than 3 fold between the IC50 in the HAP1 MTAP-intact cell line and the HAP1 MTAP-deleted cell line),1 to 10,–,500 to 5000,A (a Ki ratio greater than or equal to 10 fold between the Ki in the presence of SAM and the Ki in the presence of MTA),500 to 5000
"CC(=O)N1CC(Nc2cc(C(=O)NC[C@H](O)CN3CCc4c(ccc(OCc5ocnc5C)c4C)C3)nc(C(C)(C)C)n2)C1 [Compound 569, (S)-6-((1-acetylazetidin-3-yl)amino)-2-(tert-butyl)-N-(2-hydroxy-3-(5-methyl-6-((4-methyloxazol-5-yl)methoxy)-3,4-dihydroisoquinolin-2(1H)-yl)propyl)pyrimidine-4-carboxamide]",50 to 500,A (a Ki ratio greater than or equal to 10 fold between the Ki in the presence of SAM and the Ki in the presence of MTA),1000 to 10000,B* (an IC50 ratio greater than or equal to 3 fold but lower than 10 fold between the IC50 in the HAP1 MTAP-intact cell line and the HAP1 MTAP-deleted cell line),≥ 10,≥ 5000,50 to 500,–,–
